Data on 11 compounds can be found in patent US20220235064A1 (WELLMARKER BIO CO., LTD., priority 2019, published 2022).

Assay [1] relates to cancer cell line KM12C, in which RON is activated. Nature of the assay: Cell growth inhibitory ability in RON-activated cancer cell line (MTS). Format: cell-based. The conditions noted are these: Homo sapiens, 48 hours, absorbance 490 nm. Put shortly: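 KM12C cells (RON-activated, MEM with FBS) exposed to compound […] for 48 h. MTS added 24 h after treatment ended, incubated 4 h at 37° C, absorbance read at 490 nm. IC50 derived from absorbance.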

Assay [2] has the same test system. Nature of the assay: Cell-killing efficacy in RON-activated cancer cell line (trypan blue). To be noted: for cytotoxicity at 1 µM / cytotoxicity at 5 µM: Homo sapiens, 48 hours, trypan blue, n=2, read-out: Cell death (%) Cancer cell line KM12C; for cell-killing effect (in words): as compared with the positive control. Format: cell-based. An outline of the steps: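 KM12C cells seeded 1×10^5 per 60 mm^2 dish in MEM + 10% FBS, then exposed 24 h later to compound at 1 μM or 5 μM for 48 h.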

Assay [3] concerns cancer cell line SW620, in which mutated RON (Δ155) is expressed. Nature of the assay: Cell-killing efficacy in RON-mutated cancer cell line SW620 (trypan blue). To be noted: for cytotoxicity at 1 µM / cytotoxicity at 5 µM: Homo sapiens, SW-620, 48 hours, trypan blue, n=2, read-out: Cell death (%) Cancer cell line SW620; for cell-killing effect (in words): SW620, as compared with the positive control. It is filed as cell-based. On the procedure:
(§1) Experimental Example 4: Measurement of Cell-Killing Efficacy of Example Compounds in RON-Mutated Cancer Cell Lines
(§2) Each of two colorectal cancer cell lines, that is, the cancer cell line HT29 (30038, KCLB, RPMI+10% FBS), in which mutated RON (Δ160) is expressed, and the cancer cell line SW620 (CCL-227, ATCC, RPMI+10% FBS), in which mutated RON (Δ155) is expressed, was dispensed into each 60 mm^2 dish at 1×10^5 cells. After 24 hours, the dish was treated with each of the example compounds at a concentration of 1 μM or 5 μM while performing medium exchange, and then reaction was allowed to proceed for 48 hours. After 48 hours, centrifugation was performed for 4 minutes at 1,500 rpm to collect cells and cell fluid. Thereafter, living cells and dead cells were quantified (n=2) using a trypan blue solution (15250-061, Gibco), and statistical analysis was performed using Excel-T-test. Here, as a negative control, only a solvent (0.10% DMSO) was used; and as a positive control, N-(4-(2-amino-3-chloropyridin-4-yloxy)-3-fluorophenyl)-4-ethoxy-1-(4-fluorophenyl)-2-oxo-1,2-dihydropyridine-3-carboxamide, which is the compound of Example 1 in WO 2008/058229 A1, was used.

Assay [4] has as its system cancer cell line HT29, in which mutated RON (Δ160) is expressed. The assay can be described thus: Cell-killing efficacy in RON-mutated cancer cell line HT29 (trypan blue). It is filed as cell-based. The conditions noted are these: for cell-killing effect (in words): HT29, as compared with the positive control; for cytotoxicity at 1 µM / cytotoxicity at 5 µM: Homo sapiens, HT-29, 48 hours, trypan blue, n=2, read-out: Cell death (%) Cancer cell line HT29. On the procedure:
as §1, §2

Another assay deals with T1, RON tyrosine kinase (Homo sapiens, UniProt Q04912).
T1 construct: purchased Carna Bioscience
Nature of the assay: Enzyme inhibitory activity against RON tyrosine kinase (TR-FRET). It is filed as biochemical. The conditions noted are these: RON (Carna Bioscience). Put shortly:
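Recombinant RON was preincubated with compound for 15 min at RT in 50 mM HEPES pH 7.5, 10 mM MgCl2, 1 mM EGTA, 2 mM DTT, 0.01% Tween-20. Enzyme (0.4 nM), ATP (60 μM) and tyrosine peptide (400 nM) were prepared at 2×, 4× and 4× final. After 60 min at RT, EDTA/Eu-anti-phosphotyrosine stop; IC50 from 665 nm TR-FRET emission.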
(Time-resolved FRET reads energy transfer from a long-lived donor to a nearby acceptor.)

SMILES strings stand for the structures.

T1 sequence (Q04912 25-1400): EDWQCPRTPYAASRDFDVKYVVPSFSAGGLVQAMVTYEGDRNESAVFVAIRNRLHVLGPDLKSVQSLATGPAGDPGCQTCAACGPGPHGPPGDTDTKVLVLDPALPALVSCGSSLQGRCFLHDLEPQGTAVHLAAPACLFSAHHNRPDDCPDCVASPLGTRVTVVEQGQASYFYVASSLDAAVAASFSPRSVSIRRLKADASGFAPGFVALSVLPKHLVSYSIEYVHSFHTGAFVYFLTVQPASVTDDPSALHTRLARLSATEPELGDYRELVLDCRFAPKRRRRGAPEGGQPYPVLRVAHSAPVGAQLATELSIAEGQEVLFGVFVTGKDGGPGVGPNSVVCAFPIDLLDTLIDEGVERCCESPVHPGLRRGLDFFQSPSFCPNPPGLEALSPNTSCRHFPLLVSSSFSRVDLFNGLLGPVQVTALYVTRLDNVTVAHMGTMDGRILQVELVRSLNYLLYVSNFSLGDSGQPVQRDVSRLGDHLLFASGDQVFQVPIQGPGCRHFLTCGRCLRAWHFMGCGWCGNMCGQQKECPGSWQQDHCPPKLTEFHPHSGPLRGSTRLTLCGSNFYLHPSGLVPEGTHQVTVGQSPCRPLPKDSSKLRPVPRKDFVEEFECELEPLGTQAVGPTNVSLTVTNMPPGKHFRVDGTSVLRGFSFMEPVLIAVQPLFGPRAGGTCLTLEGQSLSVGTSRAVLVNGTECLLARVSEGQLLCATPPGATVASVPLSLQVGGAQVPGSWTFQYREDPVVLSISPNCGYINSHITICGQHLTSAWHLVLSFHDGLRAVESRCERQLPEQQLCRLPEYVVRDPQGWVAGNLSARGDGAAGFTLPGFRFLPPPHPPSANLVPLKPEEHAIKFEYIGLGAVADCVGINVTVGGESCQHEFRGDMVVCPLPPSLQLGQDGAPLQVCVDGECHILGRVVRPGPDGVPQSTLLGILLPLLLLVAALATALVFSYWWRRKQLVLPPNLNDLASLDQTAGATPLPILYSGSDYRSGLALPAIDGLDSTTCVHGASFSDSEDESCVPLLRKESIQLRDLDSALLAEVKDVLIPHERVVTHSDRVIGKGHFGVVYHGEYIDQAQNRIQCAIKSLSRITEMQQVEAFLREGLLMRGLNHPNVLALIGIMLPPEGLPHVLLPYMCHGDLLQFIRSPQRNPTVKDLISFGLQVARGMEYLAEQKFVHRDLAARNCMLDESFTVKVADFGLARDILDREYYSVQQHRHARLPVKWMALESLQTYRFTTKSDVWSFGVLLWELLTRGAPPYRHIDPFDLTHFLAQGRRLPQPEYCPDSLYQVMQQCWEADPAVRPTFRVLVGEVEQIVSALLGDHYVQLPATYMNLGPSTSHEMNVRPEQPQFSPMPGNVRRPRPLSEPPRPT

Regarding `COc1cc2c(Oc3ccc(NC(=O)c4c5c(cn(-c6ccc(F)cc6)c4=O)CCO5)cc3F)ccnc2cc1OCCCN1CCC(F)(F)CC1` [Example 105, N-(4-((7-(3-(4,4-Difluoropiperidin-1-yl)propoxy)-6-methoxyquinolin-4-yl)oxy)-3-fluorophenyl)-5-(4-fluorophenyl)-6-oxo-2,3,5,6-tetrahydrofuro[3,2-c]pyridine-7-carboxamide], in assay [1], the IC50 (commonly the midpoint of a concentration-inhibition curve) stood at 4 nM. In assay [2], the cytotoxicity at 1 µM is 33.8% and the cytotoxicity at 5 µM turned out to be 45.2%. In assay [3], the cytotoxicity at 1 µM is 60.4% and the cytotoxicity at 5 µM turned out to be 84.1%.
For the compound `COc1cc2c(Oc3ccc(NC(=O)c4c5c(cn(-c6ccc(F)cc6)c4=O)CCO5)cc3F)ccnc2cc1OCCCN1CC(F)(F)C1` [Example 87, N-(4-((7-(3-(3,3-Difluoroazetidin-1-yl)propoxy)-6-methoxyquinolin-4-yl)oxy)-3-fluorophenyl)-5-(4-fluorophenyl)-6-oxo-2,3,5,6-tetrahydrofuro[3,2-c]pyridine-7-carboxamide], the midpoint of inhibition in assay [1], the IC50, lay at 3 nM. For the same compound, in assay [2], the cytotoxicity at 1 µM is 40.7% and the cytotoxicity at 5 µM came out at 60.1%. For the same compound, in assay [3], the cytotoxicity at 1 µM turned out to be 77.1% and the cytotoxicity at 5 µM is 70.5%.
In assay [1], `COc1cc2c(Oc3ccc(NC(=O)c4c5c(cn(-c6ccc(F)cc6)c4=O)CCO5)cc3F)ccnc2cc1OCCN1CC(C#N)C1` [Example 125] displayed an IC50 of 3 nM. Also, the cytotoxicity at 1 µM in assay [2] is 22.3%; in assay [4], 39.4%; in assay [3] it was 60.9%. In addition, the values for the cytotoxicity at 5 µM in assay [2], in assay [4] and in assay [3] were 39.6%, 67.8% and 91.5%, respectively. The “cell-killing effect (in words)” value in assay [2], in assay [4] and in assay [3] was “high cell-killing effect” in each case.
`COc1cc2c(Oc3ccc(NC(=O)c4c5c(cn(-c6ccc(F)cc6)c4=O)CCO5)cc3F)ccnc2cc1OCCN1CCS(=O)(=O)CC1` [Example 142, N-(4-((7-(2-(1,1-Dioxidothiomorpholino)ethoxy)-6-methoxyquinolin-4-yl)oxy)-3-fluorophenyl)-5-(4-fluorophenyl)-6-oxo-2,3,5,6-tetrahydrofuro[3,2-c]pyridine-7-carboxamide] showed an IC50 in assay [1] of 1 nM. The cytotoxicity at 1 µM in assay [2] is 34%; in assay [3], 74%. For the same compound, the cytotoxicity at 5 µM in assay [2] is 40%; in assay [3] it was 67.6%.
`COC1CCN(Cc2ccc(-c3cc4nccc(Oc5ccc(NC(=O)c6c7c(cn(-c8ccc(F)cc8)c6=O)CCO7)cc5F)c4s3)nc2)CC1` [Example 31, N-(3-Fluoro-4-((2-(5-((4-methoxypiperidin-1-yl)methyl)pyridin-2-yl)thieno[3,2-b]pyridin-7-yl)oxy)phenyl)-5-(4-fluorophenyl)-6-oxo-2,3,5,6-tetrahydrofuro[3,2-c]pyridine-7-carboxamide] showed an IC50 in assay [1] of 2 nM. In addition, in assay [2], the cytotoxicity at 1 µM stood at 40.9% and the cytotoxicity at 5 µM stood at 52%. In addition, in assay [3], the cytotoxicity at 1 µM was 15.4% and the cytotoxicity at 5 µM was 47%.
Consider `COc1cc2c(Oc3ccc(NC(=O)c4c5c(cn(-c6ccc(F)cc6)c4=O)CCO5)cc3F)ccnc2cc1OCCN1CC(F)(F)C1` [Example 124, N-(4-((7-(2-(3,3-difluoroazetidin-1-yl)ethoxy)-6-methoxyquinolin-4-yl)oxy)-3-fluorophenyl)-5-(4-fluorophenyl)-6-oxo-2,3,5,6-tetrahydrofuro[3,2-c]pyridine-7-carboxamide], for which the IC50 in assay [1] came out at 5 nM. The cytotoxicity at 1 µM worked out at 16.3% in assay [2], 15.7% in assay [4] and 6.2% in assay [3]. Further, the cytotoxicity at 5 µM is 57.3% in assay [2], 62.1% in assay [4] and 98.7% in assay [3].
In assay [1], `COc1cc2c(Oc3ccc(NC(=O)c4c5c(cn(-c6ccc(F)cc6)c4=O)CCO5)cc3F)ccnc2cc1OCCN1CCC(F)(F)CC1` [Example 145, N-(4-((7-(2-(4,4-Difluoropiperidin-1-yl)ethoxy)-6-methoxyquinolin-4-yl)oxy)-3-fluorophenyl)-5-(4-fluorophenyl)-6-oxo-2,3,5,6-tetrahydrofuro[3,2-c]pyridine-7-carboxamide] returned an IC50 of 2 nM. The cytotoxicity at 1 µM in assay [2] was 25.7%; in assay [4], 16.4%; in assay [3], 11%. The results for the cytotoxicity at 5 µM in assay [2], in assay [4] and in assay [3] were 45.4%, 81.4% and 87.1%, respectively.
`COc1cc2c(Oc3ccc(NC(=O)c4c5c(cn(-c6ccc(F)cc6)c4=O)CCO5)cc3F)ccnc2cc1OCCN1CCC(F)(F)C1` [Example 134, N-(4-((7-(2-(3,3-Difluoropyrrolidin-1-yl)ethoxy)-6-methoxyquinolin-4-yl)oxy)-3-fluorophenyl)-5-(4-fluorophenyl)-6-oxo-2,3,5,6-tetrahydrofuro[3,2-c]pyridine-7-carboxamide] yielded an IC50 in assay [1] of 2 nM. Further, in assay [2], the cytotoxicity at 1 µM turned out to be 35.5%, the cytotoxicity at 5 µM was determined as 47.4% and the “cell-killing effect (in words)” value is recorded as “high cell-killing effect”. Besides, in assay [4], the “cell-killing effect (in words)” value is reported as “high cell-killing effect”, the cytotoxicity at 1 µM turned out to be 47% and the cytotoxicity at 5 µM is 82.2%. For the same compound, in assay [3], the cytotoxicity at 1 µM came to 76.1%, the cytotoxicity at 5 µM was 82.8% and the “cell-killing effect (in words)” value is “high cell-killing effect”.
`COc1cc2nccc(Oc3ccc(NC(=O)c4c5c(cn(-c6ccc(F)cc6)c4=O)CCO5)cc3F)c2cc1OC` [Example 40, N-(4-((6,7-Dimethoxyquinolin-4-yl)oxy)-3-fluorophenyl)-5-(4-fluorophenyl)-6-oxo-2,3,5,6-tetrahydrofuro[3,2-c]pyridine-7-carboxamide]: the IC50 on RON tyrosine kinase was 3.21 nM. Besides, the figures for the cytotoxicity at 1 µM in assay [2], in assay [4] and in assay [3] were 29.8%, 9.17% and 8.5%, respectively. The cytotoxicity at 5 µM in assay [2] is 37.3%; in assay [4], 22.9%; in assay [3], 9.2%.
As for `CN(C)C1CN(Cc2ccc(-c3cc4nccc(Oc5ccc(NC(=O)c6c7c(cn(-c8ccc(F)cc8)c6=O)CCO7)cc5F)c4s3)nc2)C1` [Example 20, N-(4-((2-(5-((3-(Dimethylamino)azetidin-1-yl)methyl)pyridin-2-yl)thieno[3,2-b]pyridine-7-yl)oxy)-3-fluorophenyl)-5-(4-fluorophenyl)-6-oxo-2,3,5,6-tetrahydrofuro[3,2-c]pyridine-7-carboxamide], the IC50 in assay [1] is 1 nM. In addition, the values for the cytotoxicity at 1 µM in assay [2] and in assay [3] were 8.12% and 17.4%, respectively. For the same compound, the cytotoxicity at 5 µM in assay [2] stood at 35.5%; in assay [3], 91.2%.
Regarding `COc1cc2c(Oc3ccc(NC(=O)c4c5c(cn(-c6ccc(F)cc6)c4=O)CCO5)cc3F)ccnc2cc1NC(=O)CCN1CCOCC1` [Example 183, N-(3-Fluoro-4-((6-methoxy-7-(3-morpholinopropanamido)quinolin-4-yl)oxy)phenyl)-5-(4-fluorophenyl)-6-oxo-2,3,5,6-tetrahydrofuro[3,2-c]pyridine-7-carboxamide], the IC50 against RON tyrosine kinase worked out at 2.5 nM; in assay [1], 3 nM. For the same compound, the cytotoxicity at 1 µM in assay [2] was determined as 27.3%; in assay [4], 7.8%. Besides, the figures for the cytotoxicity at 5 µM in assay [2] and in assay [4] were 40.3% and 87.5%, respectively.
